The melting point is the temperature of the solid-liquid transition. The pIC50 is −log10 of the IC50, conventionally taken in molar units. Read a high pIC50 as a low IC50.

Consider 33 compounds from patent US20050090524A1, “Novel adamantane derivatives” (priority 2002, published 2005).

One series concerns the target T1, P2X7 receptor (Homo sapiens, UniProt Q99572).
T1 construct: 200 μl of a suspension of THP-1 cells; endogenous in cells; host or cells: THP-1 cells
T1 sequence (Q99572 1-595): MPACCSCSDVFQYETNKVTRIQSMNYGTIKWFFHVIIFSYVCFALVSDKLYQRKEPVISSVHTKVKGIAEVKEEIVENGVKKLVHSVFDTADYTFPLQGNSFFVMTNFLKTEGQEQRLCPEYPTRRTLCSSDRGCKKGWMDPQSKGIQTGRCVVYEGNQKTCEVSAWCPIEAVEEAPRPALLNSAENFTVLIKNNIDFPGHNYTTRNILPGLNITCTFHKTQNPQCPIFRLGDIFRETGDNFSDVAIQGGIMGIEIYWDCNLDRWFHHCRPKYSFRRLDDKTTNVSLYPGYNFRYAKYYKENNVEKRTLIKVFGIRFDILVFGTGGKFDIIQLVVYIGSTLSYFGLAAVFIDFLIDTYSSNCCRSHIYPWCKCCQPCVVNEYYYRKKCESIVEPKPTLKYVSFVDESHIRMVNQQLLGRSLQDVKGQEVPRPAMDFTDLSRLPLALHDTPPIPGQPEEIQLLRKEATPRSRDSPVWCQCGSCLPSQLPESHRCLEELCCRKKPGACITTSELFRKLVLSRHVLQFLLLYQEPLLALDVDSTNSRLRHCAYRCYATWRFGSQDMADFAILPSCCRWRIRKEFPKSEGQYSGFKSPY
The series can be described thus: P2X7 receptor antagonist test: bbATP-induced ethidium bromide fluorescence in THP-1 cells. It counts as cell-based. Conditions: bbATP agonist, 37° C. for one hour, negative logarithm of concentration reducing bbATP agonist activity by 50%. From the text: Certain compounds such as benzoylbenzoyl adenosine triphosphate (bbATP) are known to be agonists of the P2X7 receptor, effecting the formation of pores in the plasma membrane (Drug Development Research (1996), 37(3), p.126). Consequently, when the receptor is activated using bbATP in the presence of ethidium bromide (a fluorescent DNA probe), an increase in the fluorescence of intracellular DNA-bound ethidium bromide is observed. The increase in fluorescence can be used as a measure of P2X7 receptor activation and therefore to quantify the effect of a compound on the P2X7 receptor.
In this manner, each of the title compounds of the Examples was tested for antagonist activity at the P2X7 receptor. Thus, the test was performed in 96-well flat bottomed microtitre plates, the wells being filled with 250 μl of test solution comprising 200 μl of a suspension of THP-1 cells (2.5×10^6 cells/ml) containing 10^−4M ethidium bromide, 25 μl of a high potassium buffer solution containing 10^−5M bbATP, and 25 μl of the high potassium buffer solution containing 3×10^−5M test compound. The plate was covered with aplastics sheet and incubated at 37° C. for one hour. The plate was then read in a Perkin-Elmer fluorescent plate reader, excitation 520 nm, emission 595 nm, slit widths: Ex 15 nm, Em 20 nm. For the purposes of comparison, bbATP (a P2X7 receptor agonist) and pyridoxal 5-phosphate (a P2X7 receptor antagonist) were used separately in the test as controls. From the readings obtained, a pIC50 figure was calculated for each test compound, this figure being the negative logarithm of the concentration of test compound necessary to reduce the bbATP agonist activity by 50%.

pIC50: −log10 of the molar value. Structures can show the parent of a compound that is named as a salt.

`O=C(NCC12CC3CC(CC(C3)C1)C2)c1cccc2nc(CCCNCCCO)ccc12` (as salt: hydrochloride): the melting point was in the range of 150 to 152 °C.
`O=C(CC12CC3CC(CC(C3)C1)C2)Nc1c(Cl)ccc2nc(CN3CCN(CCO)CC3)ccc12` [Example 196, 2-(1-Adamantyl)-N-(6chloro-2-{[4-(2-hydroxyethyl)piperazin-1-yl]methyl}quinlolin-5-yl)acetamide] gave a pIC50 on P2X7 receptor of 7.73.
In the case of `CNCCNc1ccc2c(NC(=O)CC34CC5CC(CC(C5)C3)C4)c(Cl)ccc2n1` (as salt: hydrochloride), the melting point is 232 to 234 °C.
Still for that read-out and setting: to `Cc1ccc2nc(N3CCC(NCCO)CC3)ccc2c1NC(=O)CC12CC3CC(CC(C3)C1)C2` (as salt: hydrochloride) [Example 181, 2-(1-Adamantyl)-N-(2-{4-[(2-hydroxyethyl)amino]piperidin-1-yl}-6-methylquinolin-5-yl)acetamide Dihydrochloride] belongs 306 °C.
Same read-out and setting: in the case of `Cc1ccc2nc(N3CC[C@H](N)C3)ccc2c1NC(=O)CC12CC3CC(CC(C3)C1)C2` (as salt: hydrochloride) it was 291 °C.
In turn, `O=C(CC12CC3CC(CC(C3)C1)C2)Nc1c(Cl)ccc2nc(NCCNCCO)ccc12` (as salt: hydrochloride) gave a melting point of 219 to 223 °C.
Turning to `Cc1ccc2nc(CCNCCCO)ccc2c1NC(=O)CC12CC3CC(CC(C3)C1)C2` [Example 205, 2-(1-Adamantyl)-N-(2-{2-[(3-hydroxypropyl)amino]ethyl}-6-methylquinolin-5-yl)acetamide Dihydrochloride], the pIC50 on P2X7 receptor was 7.75.
The compound `O=C(CC12CC3CC(CC(C3)C1)C2)Nc1cccc2nc(CCCNCCCO)ccc12` (as salt: hydrochloride) [Example 177, 2-(1-Adamantyl)-N-(2-{3-[(3-hydroxypropyl)amino]propyl}quinolin-5-yl)acetamide Dihydrochloride] showed a melting point of 130 to 135 °C.
Consider `O=C(NCC12CC3CC(CC(C3)C1)C2)c1c(Cl)ccc2nc(CN3CCNCC3)ccc12` (as salt: hydrochloride) [Example 170, N-(1-Adamantylmethyl)-6-chloro-2-(piperazin-1-ylmethyl)quinoline-5-carboxamide Hydrochloride], for which the melting point is 208 °C (dec.).
Turning to `O=C(NCC12CC3CC(CC(C3)C1)C2)c1cc(CCCNCCCO)nc2ccccc12` [Example 168, N-(1-Adamantylmethyl)-2-{3-[(3-hydroxypropyl)amino]propyl}quinoline-4-carboxamide Benzoic Acid Salt], at P2X7 receptor, the pIC50 was 7.60.
Take `O=C(CC12CC3CC(CC(C3)C1)C2)Nc1c(Cl)ccc2nc(N3CCNCC3)ccc12` (as salt: hydrochloride) [Example 207, 2-(1-Adamantyl)-N-(6-chloro-2-piperazin-1-ylquinolin-5-yl)acetamide]: the melting point lay in the range of 280 to 283 °C.
The same measure, in the same setting: in the case of `Cc1ccc2nc(NCCNCCO)ccc2c1NC(=O)CC12CC3CC(CC(C3)C1)C2` (as salt: hydrochloride) it was 227 to 230 °C; in that of `O=C(CC12CC3CC(CC(C3)C1)C2)Nc1c(Cl)ccc2nc(CC[C@@H](O)CO)ccc12` (as salt: hydrochloride), 147 to 150 °C; in that of `O=C(CC12CC3CC(CC(C3)C1)C2)Nc1c(Cl)ccc2nc(CN3CCNCC3)ccc12` (as salt: trifluoroacetate), 132 to 136 °C.
As to `O=C(CC12CC3CC(CC(C3)C1)C2)Nc1cccc2cnccc12` [Example 160, 2-(1-Adamantyl)-N-isoquinolin-5-ylacetamide], the pIC50 at P2X7 receptor is 7.10.
`Cc1ccc2nc(NCCCO)ccc2c1NC(=O)CC12CC3CC(CC(C3)C1)C2` [Example 12, 2(1-Adamantyl)-N-{2-[(3-hydroxypropyl)amino]-6-methylquinolin-5-yl}acetamide] yielded a melting point of 168 to 174 °C.
In the case of `CNCCCN(C)c1ccc2c(C(=O)NCC34CC5CC(CC(C5)C3)C4)c(Cl)ccc2n1` (as salt: TFA) [Example 208, N-(1-Adamantylmethyl)-6-chloro-2-{methyl[3-(methylamino)propyl]amino}quinoline-5-carboxamide], the melting point fell in the range of 195 to 200 °C.
On the same count and under the same terms, in the case of `O=C(NCC12CC3CC(CC(C3)C1)C2)c1cccc2ncccc12` (as salt: trifluoroacetate) it was 125 to 127 °C (dec.).
Take `CCNCCCc1ccc2c(C(=O)NCC34CC5CC(CC(C5)C3)C4)cccc2n1` (as salt: hydrochloride) [Example 173, N-(1-Adamantylmethyl)-2-[3-(ethylamino)propyl]quinoline-5-carboxamide Dihydrochloride]: the melting point lay in the range of 150 to 155 °C.
Still for that read-out and setting: in the case of `Cc1ccc2nc(N3CCN(CCO)CC3)ccc2c1NC(=O)CC12CC3CC(CC(C3)C1)C2` (as salt: hydrochloride) it was 224 °C; in that of `Cc1ccc2nc(N(C)CCN(C)C)ccc2c1NC(=O)CC12CC3CC(CC(C3)C1)C2` (as salt: trifluoroacetic acid salt) [Example 14, 2-(1-Adamantyl)-N-{2-[[2-(dimethylamino)ethyl](methyl)amino]-6-methylquinolin-5-yl}acetamide], 193 to 195 °C; in that of `O=C(CC12CC3CC(CC(C3)C1)C2)Nc1c(Cl)ccc2nc(NCCCNCCO)ccc12` (as salt: hydrochloride), 264 to 266 °C.
Still for that read-out and setting: in the case of `O=C(CC12CC3CC(CC(C3)C1)C2)Nc1c(Cl)ccc2nc(CN[C@@H]3CCNC3)ccc12` (as salt: trifluoroacetate) it was 90 to 91 °C.
For the compound `O=C(NCC12CC3CC(CC(C3)C1)C2)c1cc(CCCNCCCO)nc2ccccc12` (as salt: salt) [Example 168, N-(1-Adamantylmethyl)-2-{3-[(3-hydroxypropyl)amino]propyl}quinoline-4-carboxamide Benzoic Acid Salt], the melting point was 147 to 148 °C (dec.).
Same read-out and setting: in the case of `Cc1ccc2nc(N3CC[C@H](NC(=O)N4CC[C@H](N)C4)C3)ccc2c1NC(=O)CC12CC3CC(CC(C3)C1)C2` (as salt: hydrochloride) it was 270 °C; in that of `O=C(CC12CC3CC(CC(C3)C1)C2)Nc1c(Cl)ccc2ncccc12` [Example 5, 2-(1-Adamantyl)-N-(6-chloroquinolin-5-yl)acetamide], 219 to 220 °C; in that of `Cc1ccc2nc(N3CCNCC3)ccc2c1NC(=O)CC12CC3CC(CC(C3)C1)C2` (as salt: hydrochloride) [Example 178, 2-(1-Adamantyl)-N-(6methyl-2-piperazin-1-ylquinolin-5-yl)acetamide Dihydrochloride], 276 °C.
Same read-out and setting: in the case of `Cc1ccc2nc(NCCO)ccc2c1NC(=O)CC12CC3CC(CC(C3)C1)C2` (as salt: trifluoroacetic acid salt) [Example 13, 2-(1-Adamantyl)-N-{2[(2-hydroxyethyl)amino]-6-methylquinolin-5-yl}acetamide] it was 103 to 107 °C.
Same read-out and setting: to `CNCCCNc1ccc2c(NC(=O)CC34CC5CC(CC(C5)C3)C4)c(C)ccc2n1` [Example 204, 2-(1-Adamantyl)-N-(6-methyl-2-{[3-(methylamino)propyl]amino}quinolin-5-yl)acetamide] belongs 217 to 224 °C; to `CNCCCc1cccc2c(C(=O)NCC34CC5CC(CC(C5)C3)C4)ccnc12` (as salt: hydrochloride), 243 to 246 °C (dec.); to `Cc1ccc2nc(N3CCC(N)CC3)ccc2c1NC(=O)CC12CC3CC(CC(C3)C1)C2` (as salt: hydrochloride), 295 °C.
With `CNCCCc1ccc2c(C(=O)NCC34CC5CC(CC(C5)C3)C4)c(Cl)ccc2n1` (as salt: hydrochloride) [Example 167, N-(1-Adamantylmethyl)-6-chloro-2-[3-(methylamino)propyl]quinoline-5-carboxamide Sesquihydrochloride], the melting point was in the range of 184 to 185 °C.
The same measure, in the same setting: to `CNCCCc1ccc2c(C(=O)NCC34CC5CC(CC(C5)C3)C4)cccc2n1` (as salt: hydrochloride) belongs 158 to 160 °C.
